{"source": "patent US10695288B2", "about": "“Reactive oxygen species (ROS)-responsive compositions and methods thereof” (VANDERBILT UNIVERSITY, priority 2014, dated 2020)", "key": {"[1]": {"experiment": "Peroxynitrite scavenging in vitro (Pyrogallol Red bleaching assay)", "assay_type": "biochemical", "conditions": "10 μM peroxynitrite; negative control", "protocol": "The ability of PPS microspheres to scavenge peroxynitrite was tested in vitro using a Pyrogallol Red (PGR) bleaching assay. Treatment groups consisting of PBS, blank PPS microspheres (0.5-1.5 mg/mL), tempo-PPS microspheres (0.5 mg/mL), tempol (0.2 mg/mL, hydrophilic analog of tempo-benzoate), and ascorbic acid (negative control, pH adjusted to 7.4) were prepared in a 48-well plate with 500 μL volume per well. A PGR stock solution was prepared in PBS ([…]) and 10 μL was added to each well. Peroxynitrite stock solution was thawed on ice and diluted to a concentration of 1 mM in 0.3 M NaOH. After baseline absorbance of the dye was measured in a plate reader at 540 nm, 5 μL of peroxynitrite was added to each well (final concentration of 10 μM) and absorbance measurements were collected for one hour."}, "[2]": {"tested_on": "ROS levels in ischemic tissue", "experiment": "Pilot studies with free curcumin in ischemic tissue", "assay_type": "in vivo"}, "[3]": {"experiment": "Pilot studies with free curcumin in vitro", "assay_type": "physicochemical"}, "[4]": {"tested_on": "MMP-13", "experiment": "MMP-13 expression from PCR with TNF-α", "assay_type": "cell-based, porcine", "conditions": "TNF-α alone", "excerpt": "(§1) TPCA-PPS microspheres were made as shown above. Chondrocytes were obtained from porcine cadavers prepared by the University of Tennessee Heath Science Center. MMPSense750 and XenoFluor 680 was obtained from PerkinElmer. Monoclonal antibodies to type II collagen were produced in our lab. C57BL/6 male mice were obtained from Jackson Laboratory (Maine, USA) and was acclimated in a housing facility before experimentation. A custom fit ElectroForce® 3200 (Bose Corp., Minnesota, USA) biomaterials test instrument was used for mechanical loading. The mechanical loading apparatus was custom made to fit the proximal tibia in the upper cup and dorsiflexed ankle in the bottom cup."}, "[5]": {"tested_on": "mouse hind limb ischemia model", "experiment": "Speckle variance OCT of vascular morphology in adductor and gastrocnemius regions (Example 2)", "assay_type": "in vivo, FVB mice", "conditions": "gastrocnemius muscle, day 3, vs saline", "excerpt": "Briefly, the femoral artery and vein of the right hind limb were ligated with 6-0 sutures proximal to the origins of the superficial epigastric artery and deep branch of the femoral artery, and proximal to the vessels the branch from the femoral artery near the knee. Major side branches were also ligated with 6-0 sutures before the ligated segment of the femoral artery and vein was excised. The incision was closed with interrupted 5-0 nylon sutures. In therapeutic experiments, treatments were injected intramuscularly in the ischemic limb following closure of the skin incision. […]\nAt 0, 3, 7, 14, 21, and 28 days post-surgery, the hind limb vasculature in the adductor and gastrocnemius muscle regions was imaged using a swept-source optical coherence tomography (OCT) system as described previously (26, 39). […] Speckle variance OCT volumes were acquired non-invasively through the skin in 4 mm×4 mm areas covering the two muscle regions, and average intensity projections in depth were used to visualize all vessels detected within the imaged volume. After image processing was performed to enhance contrast and enable vessel segmentation (39, 40), morphological parameters including vessel area density (total area filled by vessels/total area of imaged region) and vessel length fraction (total vessel length/total area of imaged region) were quantified."}, "[6]": {"experiment": "Superoxide scavenging in vitro (DHE fluorescence, xanthine/xanthine oxidase)", "assay_type": "biochemical", "conditions": "55 μg/mL, one-way ANOVA p<0.0001", "protocol": "In vitro superoxide scavenging activity of the tempo-PPS microspheres was evaluated using a dihydroethidium (DHE) fluorescence assay. DHE has been widely used to detect superoxide, which reacts with DHE to form a specific fluorescent product, 2-OH-ethidium (2OH-E). The effects of PPS and tempo-benzoate on superoxide were determined using a superoxide-generating, cell-free enzymatic system containing 0.046 U/ml xanthine oxidase and 0.2 mM xanthine. Xanthine was prepared in PBS−/− as a stock solution (1.21 mg/mL), and the appropriate volume of xanthine stock solution was added to the xanthine oxidase solution to reach the required final concentration. The xanthine/xanthine oxidase solution (100 μL) was added to wells in a black-walled, 96-well plate containing the following treatments: PBS, blank PPS microspheres (55 μg/mL), free tempo-benzoate (dissolved in acetonitrile then diluted to 5% acetonitrile, 55 μg/mL tempo-benzoate), and tempo-PPS microspheres (55 μg/mL microsphere concentration). Each well contained 10 μL of a treatment. […] After 10 minutes, 100 μL of the DHE solution was added to each well (10 uM final DHE concentration) and the fluorescence intensity was measured in a plate reader (Tecan Group Ltd., Mannedorf, Switzerland) over a time frame of 1 hour with an excitation of 405 nm and an emission of 570 nm. […]"}, "[7]": {"experiment": "Hydrogen peroxide scavenging in vitro (Amplex Red, xanthine/xanthine oxidase)", "assay_type": "biochemical", "conditions": "1 hour of incubation, one-way ANOVA p<0.001", "protocol": "H2O2-scavenging activity of the PPS microspheres was verified in vitro using an Amplex Red Hydrogen Peroxide/Peroxidase Assay kit according to the manufacturer's instructions. Xanthine and xanthine oxidase were used at the same concentrations as described in the DHE assay to generate a reaction solution containing both superoxide and hydrogen peroxide. The reaction solution was added to wells in a black-walled, 96-well plate containing either PBS, blank PPS microspheres (final concentrations of 60 μg/mL and 7 μg/mL), or free tempo-benzoate (final concentrations of 0.5 mg/mL and 60 μg/mL). The Amplex Red working solution was freshly prepared as described in the kit instructions using the included Amplex Red, horseradish peroxidase, and 1× reaction buffer. The working solution was then added to the wells and fluorescence was measured in a plate reader at 1 hour with an excitation of 530 nm and an emission of 590 nm."}, "[8]": {"tested_on": "type II collagen", "experiment": "IVIS imaging of MabCII fluorescence after knee mechanical overload", "assay_type": "in vivo, C57BL/6 mice", "conditions": "knee injection, loading cycles; vs PBS; p=0.0181 for microspheres", "protocol": "(§2) For the study, C57BL/6 mice knees were injected with TPCA-1-PPS microspheres, TPCA-1 in its soluble form, or a PBS saline control. The mice were then given loading cycles to induce damage to the knee via the Poulet model of knee overload. At the completion of the loading cycles, the mice were given fluorescent indicators and evaluated using IVIS (in vivo imaging system) for type II collagen (and indicator of cartilage damage), and MMP activity (implicated in the progression of OA). […] This difference was not seen in the mice given the soluble form of TPCA-1 however.\nas §1"}, "[9]": {"tested_on": "MMP-13 activity", "experiment": "IVIS imaging of MMPSense fluorescence after knee mechanical overload", "assay_type": "in vivo, C57BL/6 mice", "conditions": "knee injection, loading cycles; vs PBS; p=0.0184 for microspheres", "protocol": "as §2, §1"}}, "data": [{"compound": "O=C1O[C@H]([C@@H](O)CO)C(O)=C1O", "note": "[Ascorbic acid, ascorbic acid]", "values": [{"measurement": "relative bleaching", "setting": "[1]", "value": 2, "unit": "%"}]}, {"compound": "COc1cc(/C=C/C(=O)CC(=O)/C=C/c2ccc(O)c(OC)c2)ccc1O", "note": "[free curcumin, Curcumin]", "values": [{"measurement": "ROS levels in ischemic tissue", "setting": "[2]", "value": "exacerbated ROS levels in ischemic tissue"}, {"measurement": "behaviour of free curcumin in vitro", "setting": "[3]", "value": "formed crystals in vitro"}]}, {"compound": "TNF-α", "values": [{"measurement": "increase in MMP-13 expression", "setting": "[4]", "value": "~20", "unit": "fold"}]}, {"compound": "CC1(C)CC(OC(=O)c2ccccc2)CC(C)(C)N1[O]", "note": "[free tempo-benzoate, 4-hydroxy-TEMPO benzoate]", "values": [{"measurement": "vessel area density", "setting": "[5]; p<0.01", "value": "saline-treated mice have significantly lower vessel area density"}, {"measurement": "vessel length fraction", "setting": "[5]; p<0.05", "value": "significantly lower in the saline group"}, {"measurement": "fluorescent signal from the DHE oxidation product compared to no treatment", "setting": "[6]", "value": "significantly reduce fluorescence"}, {"measurement": "Amplex Red fluorescence", "setting": "[7]", "value": "significantly increases the fluorescent signal"}]}, {"compound": "NC(=O)Nc1sc(-c2ccc(F)cc2)cc1C(N)=O", "note": "[TPCA-1 in solution, TPCA-1]", "values": [{"measurement": "MabCII fluorescence (exposed type II collagen)", "setting": "[8]", "value": "not a significant reduction in fluorescence"}, {"measurement": "MMPSense fluorescence (MMP-13 activity)", "setting": "[9]", "value": "not a significant reduction in fluorescence"}]}, {"compound": "SOD: bovine SOD (20 U/ml) used as a negative control treatment", "values": [{"measurement": "fluorescent signal from the DHE oxidation product compared to no treatment", "setting": "[6]", "value": "further inhibited"}]}]}
